Here are results for 1 molecule from ChEMBL document CHEMBL5537136 (J Med Chem, 2024).

In data set [1] the target is T1, Protein mono-ADP-ribosyltransferase PARP12 (Homo sapiens, UniProt Q9H0J9).
T1 sequence (Q9H0J9 whole entry): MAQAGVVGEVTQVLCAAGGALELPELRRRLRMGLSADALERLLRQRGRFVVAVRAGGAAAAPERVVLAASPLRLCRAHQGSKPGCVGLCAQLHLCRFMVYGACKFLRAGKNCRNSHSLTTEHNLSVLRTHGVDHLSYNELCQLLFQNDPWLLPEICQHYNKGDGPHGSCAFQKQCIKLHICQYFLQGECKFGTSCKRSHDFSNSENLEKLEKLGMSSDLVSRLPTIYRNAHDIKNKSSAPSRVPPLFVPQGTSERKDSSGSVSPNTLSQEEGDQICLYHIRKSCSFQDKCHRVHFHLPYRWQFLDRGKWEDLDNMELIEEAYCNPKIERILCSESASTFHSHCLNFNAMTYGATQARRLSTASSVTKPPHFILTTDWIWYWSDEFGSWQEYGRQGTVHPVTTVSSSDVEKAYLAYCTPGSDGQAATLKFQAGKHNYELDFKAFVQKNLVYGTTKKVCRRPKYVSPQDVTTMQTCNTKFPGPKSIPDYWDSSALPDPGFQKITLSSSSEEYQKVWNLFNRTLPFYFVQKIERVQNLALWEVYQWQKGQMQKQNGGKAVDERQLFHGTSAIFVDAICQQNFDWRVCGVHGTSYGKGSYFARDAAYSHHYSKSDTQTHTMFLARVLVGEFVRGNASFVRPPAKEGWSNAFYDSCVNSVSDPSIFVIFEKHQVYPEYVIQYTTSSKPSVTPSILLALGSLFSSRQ
Nature of the data set: Inhibition of PARP12 (unknown origin) measured after 1 hr incubation by microplate reader assay.

Data set [2] has as its system CT26. Nature of the data set: Induction of anti-tumor immunity in mouse CT26 cells assessed as increase in IFN-beta mRNA expression incubated for 2 days by quantitative real-time PCR analysis. The data set is classed as functional, cell-based. The settings on record: dose 0.04-0.44 µM, time 2.0 day.
The target of a further data set is Cytochrome P450 2D6 (Homo sapiens, UniProt P10635). Nature of the data set: Inhibition of CYP2D6 (unknown origin). Format: ADME.
Chain of Cytochrome P450 2D6 (P10635 whole entry): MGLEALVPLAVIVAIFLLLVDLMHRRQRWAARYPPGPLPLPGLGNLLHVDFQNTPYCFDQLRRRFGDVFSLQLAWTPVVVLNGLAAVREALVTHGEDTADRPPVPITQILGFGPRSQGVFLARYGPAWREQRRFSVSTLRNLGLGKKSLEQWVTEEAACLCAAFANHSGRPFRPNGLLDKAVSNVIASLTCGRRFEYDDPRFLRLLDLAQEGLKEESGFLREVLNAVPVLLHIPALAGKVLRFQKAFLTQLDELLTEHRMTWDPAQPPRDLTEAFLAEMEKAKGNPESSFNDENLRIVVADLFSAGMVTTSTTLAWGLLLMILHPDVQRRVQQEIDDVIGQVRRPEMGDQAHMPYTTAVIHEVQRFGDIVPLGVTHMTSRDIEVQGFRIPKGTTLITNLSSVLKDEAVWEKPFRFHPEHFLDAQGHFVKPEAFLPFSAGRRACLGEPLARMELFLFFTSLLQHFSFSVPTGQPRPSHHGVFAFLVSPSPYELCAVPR
A short description of data set [3]: Acute toxicity in ICR mouse assessed as change in body weight at 1000 mg/kg, po measured after 7 days. To be noted: in vivo, 168 h, time 7 day. The data set is classed as organism-based.
Data set [4] can be described thus: Toxicity in Balb/c mouse bearing mouse CT26 cells assessed as morphological changes in liver at 6.25 to 25 mg/kg, IG measured after 14 days by hematoxylin and eosin staining based assay. Format: organism-based. The settings on record: in vivo, po, 336 h, dose 6.25-25 mg/kg, time 14 day.
Data set [5] in a line: Toxicity in Balb/c mouse bearing mouse CT26 cells assessed as morphological changes in kidney at 6.25 to 25 mg/kg, IG measured after 14 days by hematoxylin and eosin staining based assay. The data set is classed as organism-based. To be noted: in vivo, po, 336 h, dose 6.25-25 mg/kg, time 14 day.
In data set [6] the test system is CT26. Nature of the data set: Antitumor activity in immunocompetent Balb/c mouse CT26 cell bearing mouse model assessed as change in tumor cell morphology at 6.25 to 25 mg/kg, IG treated twice a day measured after 14 days by hematoxylin and eosin staining based assay. The data set is classed as functional, organism-based. The settings on record: dose lower 6.25 mg/kg, dose upper […], time 14.0 day.

Activity calls are given as the source filed them. No cut-off for these calls is given here.

Usually IC50 stands for the concentration that inhibits the measured activity by half. A low value points to inhibition by little substance.

Regarding `C[C@@H](C(=O)N1CCN(c2ncc(C(F)(F)F)cn2)CC1)n1cc2cccc(C(N)=O)c2n1`, the IC50 in data set [1] was 0.664 µM; against Cytochrome P450 2D6, greater than 30 µM. For the same molecule, the Activity result in the data set with CT26 [2] was “Dose-Dependent Effect”; in data set [3], “Non-Toxic”; in data set [4], “Non-Toxic”; in data set [5] it was “Non-Toxic”. Moreover, in the data set on CT26 [6], the result was Active.
